Reference: paper PMC4545587 (Biochimica et biophysica acta, 2013)
No end group written: not given here.

Legend:
[1] = tested on: Pseudomonas aeruginosa type 1; assay type: cell-based
eukaryotic cells = details: cited from earlier work

KLFKRHLKWKII [SC4]
MIC value against P. aeruginosa ([1]; type 1): ~ 18 µM
P.a. LD50 ([1]; type 1, pH 7): 0.14 µM
lytic effect on eukaryotic cells (eukaryotic cells): no apparent lytic effect
